Assay results taken from patent EP3313408B1, “DROSPIRENONE-BASED CONTRACEPTIVE FOR A PATIENT AFFECTED WITH EXCESS WEIGHT” (Laboratorios Leon Farma SA, priority 2015, dated 2016).

Test: Trial CF111/302: number of days with bleeding and/or spotting over 9 treatment cycles
Format: in vivo, women
Method: The study CF111/302 below represents a pivotal, multicentre, double-blind, double-dummy, randomised trial on the contraceptive efficacy, tolerability and safety of LF111 (DRSP) over 9 cycles of 28 days of treatment (24 active test product tablets followed by 4 days of placebo tablets).
LF111 film-coated tablets (test product; 24 tablets containing 4 mg DRSP followed by 4 placebo tablets; León Farma) was orally administered during this trial. LF111 tablets are of the following formula: […]
This prospective, multicentre, randomised, double-blind, double-dummy trial was conducted on 857 women without uncontrolled current diseases, at risk of pregnancy, at the age of 18-45 years, systolic blood pressure < 140 mmHg, diastolic blood pressure < 90 mmHg followed in approximately 73 centres in Austria, Czech Republic, Germany, Hungary, Poland, Romania, Slovakia and Spain.
After providing informed consent at visit 1a (screening; V 1a) and receiving study medication at visit 1b, subjects will attend visits 2 to 4 at day 24±2 of the 1st, 3rd, and 6th cycle, and visit 5 (V5) at day 29+2 of the 9th cycle. The follow-up (visit 6; V6) will take place 7-10 days after last LF1 1 1 intake.
The planned total duration of the trial was set to be 16 months, with a maximum of 6 months for the enrolment process, a maximum of 9 months for the contraceptive treatment per se and 10 days for the follow-up step. The duration of contraceptive treatment for the individual women is 9 x 28 days. […]

C#C[C@]1(O)CC[C@H]2[C@@H]3CCC4=CCCC[C@@H]4[C@H]3C(=C)C[C@@]21CC [desogestrel]
Bleeding or spotting Mean # days (Period cycles 2-4, BMI < 30 kg/m^2): 16.6 days | Bleeding or spotting Mean # days (Period cycles 2-4, BMI ≥ 30 kg/m^2): 21.8 days | Bleeding or spotting Mean # days (Period cycles 2-6, BMI < 30 kg/m^2): 24.1 days | Bleeding or spotting Mean # days (Period cycles 2-6, BMI ≥ 30 kg/m^2): 16.3 days | Bleeding or spotting Mean # days (Period cycles 2-9, BMI < 30 kg/m^2): 34.7 days | Bleeding or spotting Mean # days (Period cycles 2-9, BMI ≥ 30 kg/m^2): 33.9 days
